According to US10336762B2 (priority 2017, dated 2019):
Where two headings read alike, the source gives them in different places.

How the values were obtained:
TNFα = test: cells; type: cell-based, human; conditions: Homo sapiens, Monocyte, LPS-stimulated human monocytes, read-out: EC50 TNF
IRAK4 enzyme = IRAK4 enzyme (Homo sapiens (Human), UniProt Q9NWZ3); test: biochemical; type: biochemical; conditions: IRAK4 enzyme, 500 μM ATP
IRAK4 enzyme, sequence (Q9NWZ3 whole entry): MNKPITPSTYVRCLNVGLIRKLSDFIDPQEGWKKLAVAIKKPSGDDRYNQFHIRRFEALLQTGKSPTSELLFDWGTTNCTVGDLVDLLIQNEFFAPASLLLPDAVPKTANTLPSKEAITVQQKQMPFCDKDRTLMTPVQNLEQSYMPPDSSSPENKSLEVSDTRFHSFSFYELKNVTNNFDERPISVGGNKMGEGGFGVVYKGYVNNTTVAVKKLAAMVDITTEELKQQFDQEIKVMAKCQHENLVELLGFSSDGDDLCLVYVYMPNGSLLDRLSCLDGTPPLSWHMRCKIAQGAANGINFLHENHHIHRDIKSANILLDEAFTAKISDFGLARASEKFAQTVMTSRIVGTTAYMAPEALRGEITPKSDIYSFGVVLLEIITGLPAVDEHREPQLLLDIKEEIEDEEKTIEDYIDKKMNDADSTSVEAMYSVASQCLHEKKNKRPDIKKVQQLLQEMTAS

| Structure (SMILES) | EC50 (TNFα; TNFα by TR-FRET) [nM] | IC50 (IRAK4 enzyme; TR-FRET) [nM] | EC50 (TNFα; TNFα content) [nM] | IC50 (IRAK4 enzyme; TR-FRET (HTRF)) [nM] |
| --- | --- | --- | --- | --- |
| N#Cc1cnn2c(-c3cc(NC45CCC(O)(CC4)CC5)c(C(=O)N[C@H]4CNC4=O)cn3)ccc2c1 [Example 955, (S)-6-(3-cyanopyrrolo[1,2-b]pyridazin-7-yl)-4-((4-hydroxybicyclo[2.2.2]octan-1-yl)amino)-N-(2-oxo-azetidin-3-yl)nicotinamide] | 399 | < 1 | – | – |
| CC(C)(O)[C@H](F)CNC(=O)c1cnc(-c2ccc3cc(C#N)cnn23)cc1Nc1ccc(-c2nc[nH]n2)cc1 [Example 175, (R)-4-((4-(1H-1,2,4-triazol-3-yl)phenyl)amino)-6-(3-cyanopyrrolo[1,2-b]pyridazin-7-yl)-N-(2-fluoro-3-hydroxy-3-methylbutyl)nicotinamide] | – | < 1 | 20 | – |
| CC(C)(O)[C@H](F)CNC(=O)c1cnc(-c2ccc3cc(C#N)cnn23)cc1N[C@H]1C[C@H](CNC(=O)[C@@H]2CC2(F)F)C1 [Example 699, 6-(3-cyanopyrrolo[1,2-b]pyridazin-7-yl)-4-(((1S,3R)-3-(((S)-2,2-difluorocyclopropane-1-carboxamido)methyl)cyclo-butyl)amino)-N-((R)-2-fluoro-3-hydroxy-3-methylbutyl)nicotinamide] | – | – | 36 | < 1 |
| Cn1cnc(CNC(=O)c2cnc(-c3ccc4cc(C#N)cnn34)cc2NC23CCC(O)(CC2)CC3)c1 [Example 929, 6-(3-cyanopyrrolo[1,2-b]pyridazin-7-yl)-4-((4-hydroxybicyclo[2.2.2]octan-1-yl)amino)-N-((1-methyl-1H-imidazol-4-yl)methyl)nicotinamide] | 126 | 1 | – | – |
| CC(C)(O)c1coc(CNC(=O)c2cnc(-c3ccc4cc(C#N)cnn34)cc2NC23CCC(O)(CC2)CC3)n1 [Example 622, 6-(3-cyanopyrrolo[1,2-b]pyridazin-7-yl)-4-((4-hydroxybicyclo[2.2.2]octan-1-yl)amino)-N-((4-(2-hydroxypropan-2-yl)oxazol-2-yl)methyl)nicotinamide] | – | – | 407 | 2 |
| CC(C)(C)OC(=O)NC[C@H]1C[C@H](Nc2cc(-c3ccc4cc(C#N)cnn34)ncc2C(=O)NC[C@@H](F)C(C)(C)O)C1 [Example 549, tert-butyl (((1R,3r)-3-((2-(3-cyanopyrrolo[1,2-b]pyridazin-7-yl)-5-(((R)-2-fluoro-3-hydroxy-3-methylbutyl)carbamoyl)pyridin-4-yl)amino)cyclobutyl)methyl)carbamate] | – | – | 149 | 2 |
| CC(C)(O)[C@H](F)CNC(=O)c1cnc(-c2ccc3cc(C#N)cnn23)cc1NC1CC2(CNC(=O)O2)C1 (stereo partly drawn) [Example 763, (R)-6-(3-cyanopyrrolo[1,2-b]pyridazin-7-yl)-N-(2-fluoro-3-hydroxy-3-methylbutyl)-4-((6-oxo-5-oxa-7-azaspiro[3.4]octan-2-yl)amino)nicotinamide] | – | – | 155 | < 1 |
| CC(C)(O)[C@H](F)CNC(=O)c1cnc(-c2ccc3cc(C#N)cnn23)cc1NC12CCC(F)(CC1)CC2 [Example 503, (R)-6-(3-cyanopyrrolo[1,2-b]pyridazin-7-yl)-N-(2-fluoro-3-hydroxy-3-methylbutyl)-4-((4-fluorobicyclo[2.2.2]octan-1-yl)amino)nicotinamide] | – | – | 46 | 2 |
| COc1cc(Nc2cc(-c3ccc4cc(C#N)cnn34)ncc2C(=O)NC[C@@H](F)C(C)(C)O)ccc1N1CCOCC1 [Example 685, (R)-6-(3-cyanopyrrolo[1,2-b]pyridazin-7-yl)-N-(2-fluoro-3-hydroxy-3-methylbutyl)-4-((3-methoxy-4-morpholino-phenyl)amino)nicotinamide] | – | – | 398 | 10 |
| CC1(C)CC1CNC(=O)c1cnc(-c2ccc3cc(C#N)cnn23)cc1NC12CCC(O)(CC1)CC2 (centres unmarked) [Example 924, 6-(3-cyanopyrrolo[1,2-b]pyridazin-7-yl)-N-((2,2-dimethylcyclopropyl)methyl)-4-((4-hydroxy-bicyclo[2.2.2]octan-1-yl)amino)nicotinamide] | 119 | 1 | – | – |
